# pIC50: −log10 of the molar value. Where two headings read alike, the source gives them in different places.
# How the values were obtained:
# HCC70 cells = assay: Inhibition of cell proliferation, CyQUANT Direct, HCC70; format: cell-based, human; settings: HCC70 triple negative breast cancer cells, 72-hour, read-out: HCC 70 proliferation calculated IC50
# Method: (§1) HCC70 and MB453 cells are cell lines derived from human triple negative breast cancer. COV318 and COV504 cells are cell lines derived from human ovarian cancer. Representative compounds of the invention were tested at different concentrations (from 4 μM to 126.4 pM; 0.5 log serial dilutions) for their ability to inhibit the proliferation of each of these cell lines. Known CDK inhibitors dinaciclib or N-((1S,3R)-3-((5-chloro-4-(1H-indol-3-yl) pyrimidin-2-yl)amino)cyclohexyl)-5-((E)-4-(dimethylamino)but-2-enamido)picolinamide and triptolide were used as positive controls. Cells were seeded at approximately 2,000 cells/well and grown in ATCC-formulated RPMI-1640 Medium (ATCC 30-2001)+10% FBS. The cells were cultured at 37° C. in a humidified chamber in the presence of 5% CO2. Proliferation assays were conducted over a 72-hour time period. CyQUANT® Direct Cell Proliferation Assay (Life Technologies, Chicago, IL USA) was used to assess the anti-proliferative effects of the compounds following manufacturer's directions and utilizing the reagents supplied with the CyQUANT® Direct Cell kit.
# COV318 cells = assay: Inhibition of cell proliferation, CyQUANT Direct, COV318; format: cell-based; settings: Homo sapiens; COV318 ovarian cancer cells, 72-hour; read-out: COV 318 proliferation calculated IC50
# Method: as §1
# COV504 cells = assay: Inhibition of cell proliferation, CyQUANT Direct, COV504; format: cell-based; settings: Homo sapiens; COV504 ovarian cancer cells, 72-hour; read-out: COV 504 proliferation calculated IC50
# Method: as §1
# MB453 cells = assay: Inhibition of cell proliferation, CyQUANT Direct, MB453; format: cell-based, human; settings: MB453 triple negative breast cancer cells, 72-hour, read-out: MB 453 proliferation calculated IC50
# Method: as §1
# CDK2/Cyclin E1 complex = CDK2/Cyclin E1 complex (Homo sapiens, UniProt P24941); assay: CDK2 kinase inhibition assay (Caliper/LabChip EZ Reader)
# [1] = target: CDK7/Cyclin H/MAT1 complex (Homo sapiens, UniProt P50613); assay: CDK7 kinase inhibition assay (Caliper/LabChip EZ Reader)
# CDK9/Cyclin T1 complex = CDK9/Cyclin T1 complex (Homo sapiens, UniProt P50750); assay: CDK9 kinase inhibition assay (Caliper/LabChip EZ Reader)
# Method: (§2) Compounds of the invention were assayed for inhibition of CDK7, CDK9, CDK12, and CDK2 activity at Biortus Biosciences (Jiangyin, Jiangsu Province, P.R. of China) using kinase assays for each CDK developed with a Caliper/LabChip EZ Reader (Perkin Elmer, Waltham, MA).
# (§3) Furthermore, the CDK9 inhibition assay used CDK9/Cyclin T1 complex (8 nM) and “5-FAM-CDK9tide” peptide substrate (2 μM, synthesized fluorophore-labeled peptide with the following sequence: 5-FAM-GSRTPMY-NH2 (SEQ ID NO:2) where 5-FAM is defined above and NH2 signifies a C-terminal amide) with 10 mM MgCl2 in the buffer composition listed above. The CDK12 inhibition assay used CDK12 (aa686-1082)/Cyclin K complex (50 nM) and “5-FAM-CDK9tide” (2 μM) as defined above, with 2 mM MgCl2 in the buffer composition above. Additionally, the CDK2 inhibition assay used CDK2/Cyclin E1 complex (0.5 nM) and “5-FAM-CDK7tide” (2 μM) as defined above, with 2 mM MgCl2 in the buffer composition listed above.
# (§4) The incubation period at 27° C. for each CDK inhibition assay was chosen such that the fraction of phosphorylated peptide product produced in each assay, relative to the total peptide concentration, was approximately 20% (±5%) for the uninhibited kinase (35 min. for CDK7, 35 min. for CDK2, 3 hr. for CDK12, 15 min. for CDK9).
# [2] = target: CDK12 (aa686-1082)/Cyclin K complex (Homo sapiens, UniProt Q9NYV4); assay: CDK12 kinase inhibition assay (Caliper/LabChip EZ Reader)
# CDK12 (aa686-1082)/Cyclin K complex, sequence (Q9NYV4 686-1082): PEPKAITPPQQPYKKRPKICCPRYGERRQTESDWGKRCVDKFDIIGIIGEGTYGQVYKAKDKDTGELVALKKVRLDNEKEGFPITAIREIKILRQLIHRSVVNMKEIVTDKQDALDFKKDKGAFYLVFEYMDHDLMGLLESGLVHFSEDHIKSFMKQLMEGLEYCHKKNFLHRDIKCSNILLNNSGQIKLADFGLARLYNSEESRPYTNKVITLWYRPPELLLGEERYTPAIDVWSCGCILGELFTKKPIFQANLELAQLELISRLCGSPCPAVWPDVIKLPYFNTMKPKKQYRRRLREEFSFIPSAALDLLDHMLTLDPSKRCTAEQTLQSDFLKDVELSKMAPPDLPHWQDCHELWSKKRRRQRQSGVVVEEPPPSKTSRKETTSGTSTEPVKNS
# CDK12 (aa686-1082)/Cyclin K complex, sequence (O75909 whole entry partner, the tested form may be a part): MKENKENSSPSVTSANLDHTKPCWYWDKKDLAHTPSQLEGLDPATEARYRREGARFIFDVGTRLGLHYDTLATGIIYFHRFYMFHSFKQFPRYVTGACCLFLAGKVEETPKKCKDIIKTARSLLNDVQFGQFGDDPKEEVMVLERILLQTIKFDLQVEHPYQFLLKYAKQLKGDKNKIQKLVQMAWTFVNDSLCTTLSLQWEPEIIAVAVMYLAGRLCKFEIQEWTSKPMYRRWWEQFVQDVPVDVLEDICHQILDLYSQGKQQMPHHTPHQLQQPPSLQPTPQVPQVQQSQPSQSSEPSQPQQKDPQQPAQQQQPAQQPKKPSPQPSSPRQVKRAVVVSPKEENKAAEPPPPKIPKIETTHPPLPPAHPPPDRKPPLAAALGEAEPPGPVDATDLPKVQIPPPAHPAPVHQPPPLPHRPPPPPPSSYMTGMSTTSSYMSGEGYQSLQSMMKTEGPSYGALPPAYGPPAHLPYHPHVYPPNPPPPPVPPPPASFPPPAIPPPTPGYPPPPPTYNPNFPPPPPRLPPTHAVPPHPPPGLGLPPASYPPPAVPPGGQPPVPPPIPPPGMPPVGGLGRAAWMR
# Method: as §2, §3, §4
# CDK7/Cyclin H/MAT1 complex, sequence (P50613 whole entry): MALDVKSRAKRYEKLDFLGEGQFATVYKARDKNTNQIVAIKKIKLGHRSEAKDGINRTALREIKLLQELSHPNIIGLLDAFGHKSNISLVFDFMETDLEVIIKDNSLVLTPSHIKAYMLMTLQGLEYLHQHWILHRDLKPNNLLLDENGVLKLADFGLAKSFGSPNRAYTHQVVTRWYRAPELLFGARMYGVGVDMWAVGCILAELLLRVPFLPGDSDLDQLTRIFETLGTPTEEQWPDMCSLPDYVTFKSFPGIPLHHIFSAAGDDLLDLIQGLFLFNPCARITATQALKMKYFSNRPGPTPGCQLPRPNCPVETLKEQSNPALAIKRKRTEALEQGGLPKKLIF
# CDK7/Cyclin H/MAT1 complex, sequence (P51946 whole entry partner): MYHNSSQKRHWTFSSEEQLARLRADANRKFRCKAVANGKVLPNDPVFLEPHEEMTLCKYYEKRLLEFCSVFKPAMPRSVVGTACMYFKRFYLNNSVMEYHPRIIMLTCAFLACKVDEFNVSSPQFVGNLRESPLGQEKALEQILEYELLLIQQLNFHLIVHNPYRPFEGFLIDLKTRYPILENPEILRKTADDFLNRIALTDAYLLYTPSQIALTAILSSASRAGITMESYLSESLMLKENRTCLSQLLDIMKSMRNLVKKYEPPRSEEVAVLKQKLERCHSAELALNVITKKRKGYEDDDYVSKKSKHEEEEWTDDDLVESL
# CDK7/Cyclin H/MAT1 complex, sequence (P51948 whole entry partner): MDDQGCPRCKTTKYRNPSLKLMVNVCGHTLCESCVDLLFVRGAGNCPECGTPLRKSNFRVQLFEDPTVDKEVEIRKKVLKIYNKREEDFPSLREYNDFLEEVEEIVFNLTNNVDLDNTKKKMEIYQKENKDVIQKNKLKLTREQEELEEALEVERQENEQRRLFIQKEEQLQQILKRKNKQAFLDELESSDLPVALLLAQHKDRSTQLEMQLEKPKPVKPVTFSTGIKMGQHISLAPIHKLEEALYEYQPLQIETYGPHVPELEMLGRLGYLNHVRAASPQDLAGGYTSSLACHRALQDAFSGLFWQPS
# CDK9/Cyclin T1 complex, sequence (P50750 whole entry, the tested form may be a part): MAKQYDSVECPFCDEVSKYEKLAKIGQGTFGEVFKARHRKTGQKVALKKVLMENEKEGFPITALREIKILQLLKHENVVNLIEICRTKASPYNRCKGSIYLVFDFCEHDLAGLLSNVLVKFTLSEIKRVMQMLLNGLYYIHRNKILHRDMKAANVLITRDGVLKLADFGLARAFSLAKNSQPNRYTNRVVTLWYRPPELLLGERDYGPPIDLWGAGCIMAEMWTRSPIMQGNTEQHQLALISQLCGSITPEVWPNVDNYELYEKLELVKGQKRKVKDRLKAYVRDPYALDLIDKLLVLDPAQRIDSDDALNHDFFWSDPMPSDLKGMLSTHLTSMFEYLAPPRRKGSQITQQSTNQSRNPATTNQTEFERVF
# CDK9/Cyclin T1 complex, sequence (O60563 whole entry partner, the tested form may be a part): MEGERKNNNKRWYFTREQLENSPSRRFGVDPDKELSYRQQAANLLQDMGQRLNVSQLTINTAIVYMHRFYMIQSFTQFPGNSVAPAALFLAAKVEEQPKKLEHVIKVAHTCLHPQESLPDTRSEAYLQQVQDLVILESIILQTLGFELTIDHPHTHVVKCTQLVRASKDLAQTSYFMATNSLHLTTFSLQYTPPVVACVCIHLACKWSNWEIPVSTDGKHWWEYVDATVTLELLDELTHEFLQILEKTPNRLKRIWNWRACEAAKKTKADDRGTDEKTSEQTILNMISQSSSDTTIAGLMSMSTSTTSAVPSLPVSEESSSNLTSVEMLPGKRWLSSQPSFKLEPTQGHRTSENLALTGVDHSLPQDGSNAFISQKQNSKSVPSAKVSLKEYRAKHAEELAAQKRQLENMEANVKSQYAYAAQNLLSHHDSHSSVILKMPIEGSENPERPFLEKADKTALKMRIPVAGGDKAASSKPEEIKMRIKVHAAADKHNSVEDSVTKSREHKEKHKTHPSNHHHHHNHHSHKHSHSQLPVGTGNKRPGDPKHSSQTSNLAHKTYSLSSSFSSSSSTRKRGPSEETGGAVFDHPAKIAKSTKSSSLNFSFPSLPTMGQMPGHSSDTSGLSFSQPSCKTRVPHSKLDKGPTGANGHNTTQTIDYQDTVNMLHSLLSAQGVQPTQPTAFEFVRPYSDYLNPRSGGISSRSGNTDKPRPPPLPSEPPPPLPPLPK
SMILES,pIC50 (HCC70 cells; Homo sapiens),pIC50 (COV318 cells),pIC50 (COV504 cells),pIC50 (MB453 cells; Homo sapiens),pIC50 (CDK2/Cyclin E1 complex),pIC50 [1],pIC50 (CDK9/Cyclin T1 complex),pIC50 [2],pIC50 (HCC70 cells),pIC50 (MB453 cells),"pIC50 (CDK2/Cyclin E1 complex; read-out: CDK 2 calculated IC50, ATP 2 mM, 27° C., 35 min incubation, 2 mM MgCl2)","pIC50 ([1]; read-out: CDK 7 calculated IC50, ATP 2 mM, 27° C., 35 min incubation, 6 mM MgCl2)","pIC50 (CDK9/Cyclin T1 complex; read-out: CDK 9 calculated IC50, ATP 2 mM, 27° C., 15 min incubation, 10 mM MgCl2)","pIC50 ([2]; read-out: CDK 12 calculated IC50, ATP 2 mM, 27° C., 3 hr incubation, 2 mM MgCl2)"
"CCN[C@H]1CCC[C@@H]1Nc1ncc(C(F)(F)F)c(-c2c[nH]c3cc(C#N)ccc23)n1 [Compound 128, 3-[2-[[(1S,2S)-2-(ethylamino)cyclopentyl]-amino]-5-(trifluoromethyl)pyrimidin-4-yl]-1H-indole-6-carbonitrile]",> 7.00,6.30 to 7.00,> 7.00,> 7.00,< 6.30,> 7.52,< 6.30,< 6.30,,,,,,
N#Cc1ccc2c(-c3nc(N[C@H]4CC[C@@H]4N)ncc3C(F)(F)F)c[nH]c2c1 [Compound 103],6.30 to 7.00,6.30 to 7.00,6.30 to 7.00,6.30 to 7.00,< 6.30,> 7.52,< 6.30,< 6.30,,,,,,
N#Cc1ccc2c(-c3nc(N[C@H]4CCC[C@@H]4N)ncc3C(F)(F)F)c[nH]c2c1 [Compound 101],6.30 to 7.00,6.30 to 7.00,6.30 to 7.00,6.30 to 7.00,< 6.30,> 7.52,< 6.30,< 6.30,,,,,,
"CCN[C@H]1CC[C@@H]1Nc1ncc(C(F)(F)F)c(-c2c[nH]c3cc(C#N)ccc23)n1 [Compound 131, 3-[2-[[(1S,2S)-2-(ethylamino)cyclobutyl]-amino]-5-(trifluoromethyl)pyrimidin-4-yl]-1H-indole-6-carbonitrile]",5.70 to 6.30,5.70 to 6.30,6.30 to 7.00,6.30 to 7.00,< 6.30,> 7.52,< 6.30,< 6.30,,,,,,
"COC1CN([C@H]2CCC[C@@H]2Nc2ncc(C(F)(F)F)c(-c3c[nH]c4nc(-c5c(C)noc5C)ccc34)n2)C1 [Compound 164, 4-[6-(3,5-dimethylisoxazol-4-yl)-1H-pyrrolo[2,3-b]pyridin-3-yl]-N-[(1S,2S)-2-(3-methoxyazetidin-1-yl)cyclopentyl]-5-(trifluoromethyl)pyrimidin-2-amine]",6.30 to 7.00,< 5.70,6.30 to 7.00,6.30 to 7.00,< 6.30,> 7.52,< 6.30,< 6.30,,,,,,
"COCCNC1CCC[C@@H]1Nc1ncc(C(F)(F)F)c(-c2c[nH]c3nc(-c4c(C)noc4C)ccc23)n1 (stereo in doubt) [Compound 152, (1S, 2R)—N1-[4-[6-(3,5-dimethylisoxazol-4-yl)-1H-pyrrolo [2,3-b]pyridin-3-yl]-5-(trifluoromethyl)pyrimidin-2-yl]-N2-(2-methoxyethyl)cyclopentane-1,2-diamine]",6.30 to 7.00,5.70 to 6.30,6.30 to 7.00,6.30 to 7.00,< 6.30,> 7.52,< 6.30,< 6.30,,,,,,
"Cc1noc(C)c1-c1ccc2c(-c3nc(N[C@H]4CC[C@@H]4N)ncc3C(F)(F)F)c[nH]c2c1 [Compound 116, (1S,2S)—N2-[4-[6-(3,5-dimethylisoxazol-4-yl)-1H-indol-3-yl]-5-(trifluoromethyl)pyrimidin-2-yl]cyclobutane-1,2-diamine]",6.30 to 7.00,6.30 to 7.00,6.30 to 7.00,> 7.00,< 6.30,> 7.52,< 6.30,< 6.30,,,,,,
"Cc1noc(C)c1-c1ccc2c(-c3nc(N[C@H]4CCC[C@@H]4N4CC(O)C4)ncc3C(F)(F)F)c[nH]c2n1 [Compound 159, 1-[(1S,2S)-2-[[4-[6-(3,5-dimethylisoxazol-4-yl)-1H-pyrrolo[2,3-b]pyridin-3-yl]-5-(trifluoromethyl)pyrimidin-2-yl]amino]cyclopentyl] azetidin-3-ol]",> 7.00,< 5.70,6.30 to 7.00,6.30 to 7.00,< 6.30,> 7.52,< 6.30,< 6.30,,,,,,
"N#Cc1ccc2c(-c3nc(N[C@H]4C[C@H]5CC[C@@H]4N5)ncc3C(F)(F)F)c[nH]c2c1 [Compound 114, 3-[2-[[(1S,2S,4R)-7-azabicyclo[2.2.1]heptan-3-yl]-amino]-5-(trifluoromethyl)pyrimidin-4-yl]-1H-indole-6-carbonitrile]",6.30 to 7.00,6.30 to 7.00,> 7.00,> 7.00,< 6.30,> 7.52,< 6.30,< 6.30,,,,,,
N#Cc1ccc2c(-c3nc(N[C@@H]4CNC[C@@H]4O)ncc3C(F)(F)F)c[nH]c2c1 (relative stereo) [Compound 107],< 5.70,< 5.70,< 5.70,< 5.70,< 6.30,6.30 to 7.00,< 6.30,< 6.30,,,,,,
N#Cc1ccc2c(-c3nc(N[C@H]4CNC[C@@H]4c4ccc(Cl)cc4)ncc3C(F)(F)F)c[nH]c2c1 (relative stereo) [Compound 113],< 5.70,< 5.70,5.70 to 6.30,< 5.70,< 6.30,< 6.30,< 6.30,< 6.30,,,,,,
N#Cc1ccc2c(-c3nc(N[C@H]4CCCC[C@@H]4N)ncc3C(F)(F)F)c[nH]c2c1 [Compound 100],< 5.70,< 5.70,< 5.70,5.70 to 6.30,< 6.30,< 6.30,< 6.30,< 6.30,,,,,,
CN(C)[C@H]1CCC[C@@H]1Nc1ncc(C(F)(F)F)c(-c2c[nH]c3cc(C#N)ccc23)n1 [Compound 124],5.70 to 6.30,< 5.70,5.70 to 6.30,5.70 to 6.30,< 6.30,6.30 to 7.00,< 6.30,< 6.30,,,,,,
"N#Cc1ccc2c(-c3nc(N[C@@H]4C[C@@H]5CCC4N5)ncc3C(F)(F)F)c[nH]c2c1 (racemic) [Compound 106, 3-(2-[[(+/−)-exo-7-azabicyclo[2.2.1]heptan-2-yl]amino]-5-(trifluoromethyl)pyrimidin-4-yl)-1H-indole-6-carbonitrile]",6.30 to 7.00,6.30 to 7.00,6.30 to 7.00,6.30 to 7.00,< 6.30,> 7.52,< 6.30,< 6.30,,,,,,
COC1CCN([C@H]2CCC[C@@H]2Nc2ncc(C(F)(F)F)c(-c3c[nH]c4nc(-c5c(C)noc5C)ccc34)n2)C1 (stereo partly shown) [Compound 153],6.30 to 7.00,< 5.70,6.30 to 7.00,5.70 to 6.30,,,,,,,,,,
"CP(C)(=O)c1c(C(N)=O)ccc2c(-c3nc(N[C@H]4CCC[C@@H]4N)ncc3C(F)(F)F)c[nH]c12 [Compound 162, 3-[2-[[(1S,2S)-2-aminocyclopentyl]amino]-5(trifluoromethyl)pyrimidin-4-yl]-7-dimethylphosphoryl-1H-indole-6-carboxamide]",,,,,< 6.30,> 7.52,< 6.30,,,,,,,
"N#Cc1ccc2c(-c3nc(N[C@@H]4CC[C@H]4N4CCCC4)ncc3C(F)(F)F)c[nH]c2c1 [Compound 136, 3-[2-[[(1R,2R)-2-pyrrolidin-1-ylcyclobutyl]-amino]-5-(trifluoromethyl)pyrimidin-4-yl]-1H-indole-6-carbonitrile]",,,,,< 6.30,6.30 to 7.00,< 6.30,< 6.30,,,,,,
COCCN[C@@H]1CC[C@H]1Nc1ncc(C(F)(F)F)c(-c2c[nH]c3cc(C#N)ccc23)n1 [Compound 134],,,,,< 6.30,< 6.30,< 6.30,< 6.30,,,,,,
"Cc1noc(C)c1-c1ccc2c(-c3nc(N[C@@H]4C[C@H]5CC[C@@H]4N5)ncc3C(F)(F)F)c[nH]c2c1 [Compound 138, (1R,2R,4S)—N-[4-[6-(3,5-dimethylisoxazol-4-yl)-1H-indol-3-yl]-5-(trifluoromethyl)pyrimidin-2-yl]-7-azabicyclo-[2.2.1]-heptan-3-amine]",,,,,,,,,6.30 to 7.00,6.30 to 7.00,< 6.30,7.00 to 7.52,< 6.30,< 6.30

# Source: US11918592B2, “Inhibitors of cyclin dependent kinase 7 (CDK7)” (Syros Pharmaceuticals, Inc., priority 2018, dated 2024)
